Results: patent publication US20240208901A1, “Deuterated 3,3'-Diselenodipropionic Acid (DSePA) and Its Use as an Anticancer or Radioprotective Agent” (Secretary, Department of Atomic Energy, priority 2022, published 2024)

Assays:
[1] = test system: human NSCLC cells such as A549, H1975 and H3122; assay: MTT assay, human NSCLC cells (summary statement); type: cell-based; details: read-out: half maximum concentration (IC50) for growth inhibition
Excerpt: 3,3′-Disclenodipropionic acid-D8 (D-DSePA, chemical structure shown in FIG. 1) was synthesized by reacting freshly prepared sodium selenide (Na2Se2) and 3-bromopropionic acid-D4 in D2O solvent with 42% yield. The synthesized D-DSePA was purified and characterized by NMR spectroscopy and mass spectrometry. The molecular structure of D-DSePA has been established by single-crystal X-ray diffraction analysis. The treatment of D-DSePA and un-deuterated DSePA inhibited the growth of human NSCLC cells such as A549, H1975 and H3122 with half maximum concentration (IC50) in the range of 5-50 μM by MTT assay. […] Finally, at identical treatment concentration, D-DSePA offered better radioprotection to non-cancerous WI38 cells with a dose modification factor (DMF) of 1.16±0.05 as compared to un-deuterated DScPA with DMF of 1.12±0.03.
(§1) MTT Assay—To evaluate the anti-proliferative effect of D-DScPA and DScPA, Cells (˜5×10^3) suspended in 100 μl of complete culture medium were seeded in each well of 96 well plates. […] The percentage (%) cytotoxicity was calculated from the decrease in absorbance at 570 nm of treated groups as compared to that of control group. […] The therapeutic index was calculated by normalizing the IC50 concentration of D-DSePA/DSePA in non-cancerous cells to that in cancerous cells.

WI-38 cells = assay: MTT assay, toxicity in non-cancerous lung fibroblast WI-38 cells; type: cell-based, human; details: Homo sapiens, WI-38, WI38 cells, 48 h post treatment, read-out: IC50 for inhibiting the cell proliferation
Excerpt: Therefore, D-DSePA was compared with un-deuterated DSePA for its anticancer activity in A549, H1975 and H3122 cell lines which are representative of NSCLC. […] The plot of percent (%) cytotoxicity (100-% viability) versus the concentration of DSePA/D-DSePA was used to estimate the half maximum concentration (IC50) of above compounds to inhibit the proliferation of cells. […] Similarly, the toxicity of DSePA/D-DSePA was studied in non-cancerous lung fibroblast cells, WI-38 and WI-26 VA4 in the concentration range of 0.1 to 1000 μM at 48 h post treatment by MTT assay (FIG. 9D and 9E). […] Employing these values, the therapeutic index (IC50 in normal lung cell/IC50 in lung cancer cell) of DSePA and D-DSePA in different pairs of normal versus cancerous cells (viz., A549/WI-38, A549/WI-26 VA4, H1975/WI-38, H1975/WI-26 VA4, H3122/WI-38 and H3122/WI-26 VA4) was calculated (Table-3). […]
as §1

[2] = test system: lung cancer cell lines (A549, H1975 and H3122) versus normal lung cells (WI-38 and WI-26 VA4); assay: Therapeutic index by MTT assay, lung cancer cell lines versus normal lung cells; type: cell-based, human; details: for Therapeutic Index (IC50 in normal cell / IC50 in cancer cells): 48 h post-treatment
Procedure: Therefore, D-DSePA was compared with un-deuterated DSePA for its anticancer activity in A549, H1975 and H3122 cell lines which are representative of NSCLC. For this, above cells were treated with the varying concentrations (0.1-100 μM) of DSePA/D-DSePA for 48 h and the cell viability was determined by MTT assay (FIG. 9A-C). The plot of percent (%) cytotoxicity (100-% viability) versus the concentration of DSePA/D-DSePA was used to estimate the half maximum concentration (IC50) of above compounds to inhibit the proliferation of cells. […] Similarly, the toxicity of DSePA/D-DSePA was studied in non-cancerous lung fibroblast cells, WI-38 and WI-26 VA4 in the concentration range of 0.1 to 1000 μM at 48 h post treatment by MTT assay (FIG. 9D and 9E). […] Employing these values, the therapeutic index (IC50 in normal lung cell/IC50 in lung cancer cell) of DSePA and D-DSePA in different pairs of normal versus cancerous cells (viz., A549/WI-38, A549/WI-26 VA4, H1975/WI-38, H1975/WI-26 VA4, H3122/WI-38 and H3122/WI-26 VA4) was calculated (Table-3). […] The average therapeutic index of DSePA and D-DSePA estimated from above study was 11.05±1.5 and 78.7±29.2 respectively (FIG. 10).
MTT Assay—To evaluate the anti-proliferative effect of D-DScPA and DScPA, Cells (˜5×10^3) suspended in 100 μl of complete culture medium were seeded in each well of 96 well plates. The cells were allowed to attach and grow for 24 h, treated with desired concentrations of D-DSePA/DScPA dissolved in culture medium for 48 h and then processed for MTT assay as described in literature. The percentage (%) cytotoxicity was calculated from the decrease in absorbance at 570 nm of treated groups as compared to that of control group. The % cytotoxicity was plotted as a function of the concentration of D-DSePA and DSePA and from this curve, the concentration of D-DSePA/DScPA causing 50% toxicity (IC50) was estimated. The therapeutic index was calculated by normalizing the IC50 concentration of D-DSePA/DSePA in non-cancerous cells to that in cancerous cells.

A549 cells = assay: MTT assay, anti-proliferative effect in A549 cells; type: cell-based, human; details: Homo sapiens, 48 h treatment, read-out: IC50 to inhibit cell proliferation
Procedure: Therefore, D-DSePA was compared with un-deuterated DSePA for its anticancer activity in A549, H1975 and H3122 cell lines which are representative of NSCLC. For this, above cells were treated with the varying concentrations (0.1-100 μM) of DSePA/D-DSePA for 48 h and the cell viability was determined by MTT assay (FIG. 9A-C). The plot of percent (%) cytotoxicity (100-% viability) versus the concentration of DSePA/D-DSePA was used to estimate the half maximum concentration (IC50) of above compounds to inhibit the proliferation of cells. […] Employing these values, the therapeutic index (IC50 in normal lung cell/IC50 in lung cancer cell) of DSePA and D-DSePA in different pairs of normal versus cancerous cells (viz., A549/WI-38, A549/WI-26 VA4, H1975/WI-38, H1975/WI-26 VA4, H3122/WI-38 and H3122/WI-26 VA4) was calculated (Table-3). […]
as §1

## O=C(O)CC[Se][Se]CCC(=O)O [DSePA, 3,3′-diselenodipropionic acid]
[1]
  IC50: 5 to 50 µM
WI-38 cells
  IC50: 171 ± 2.2 µM
[2]; A549/WI-26 VA4, MTT assay
  Therapeutic Index (IC50 in normal cell / IC50 in cancer cells): 9.9 ± 0.5
[2]; A549/WI-38, MTT assay
  Therapeutic Index (IC50 in normal cell / IC50 in cancer cells): 11.2 ± 0.6
[2]; H1975/WI-26 VA4, MTT assay
  Therapeutic Index (IC50 in normal cell / IC50 in cancer cells): 14.2 ± 0.7
[2]; H1975/WI-38, MTT assay
  Therapeutic Index (IC50 in normal cell / IC50 in cancer cells): 16.1 ± 0.8
[2]; H3122/WI-26 VA4, MTT assay
  Therapeutic Index (IC50 in normal cell / IC50 in cancer cells): 7.0 ± 0.4
[2]; H3122/WI-38, MTT assay
  Therapeutic Index (IC50 in normal cell / IC50 in cancer cells): 7.9 ± 0.4
[2]; mean of six normal/cancer cell pairs, mean±SEM (n=6), MTT assay
  average therapeutic index: 11.05±1.5
A549 cells
  IC50: 15.2 ± 1 µM
